Experimental data taken from US4925844A, “Antagonizing the pharmacological effects of a benzodiazepine receptor agonist” (ICI Americas Inc., priority 1989, dated 1990).

What was measured:
[1] = tested on: benzodiazepine receptors; details: general statement on how activity is indicated in the test; cited from earlier work
[2] = tested on: rats; experiment: Anti-conflict activity / shock-induced suppression of drinking (SSD) test; type: in vivo; details: for anticonflict activity (increase in mean number of shocks taken vs vehicle controls): substance given alone; for antagonism of the anticonflict or disinhibiting activity (increase in shocks taken) of benzodiazepine agonists: oral or i.p., 0.2 to 50 mg per kg, 30 to 45 minutes before the benzodiazepine agonist
Procedure: A modification of the method of Vogel and coworkers (1971) is used. […] In this test, benzodiazepine agonists (e.g. chlordiazepoxide) are administered either intraperitoneally (i.p.) or orally (p.o.) at 30 or 60 min., respectively, prior to the initiation of the test. […]
The mean number of shocks taken for the groups that received the test agents (benzodiazepine agonists) alone and in the presence of benzodiazepine antagonist are recorded.

[3] = tested on: rats; experiment: Neuromuscular impairment / roto-rod test; details: for neuromuscular uncoordination (ataxia) on the roto-rod: benzodiazepine agonist alone; for antagonism of diazepam-induced neuromuscular impairment on the roto-rod: oral or intraperitoneal, 30 to 45 minutes before the benzodiazepine agonist
Procedure: Further tests may be conducted to evaluate the agonist/antagonist profile of a compound. The procedures or methods used to determine anticonflict (shock-induced suppressions of drinking test), antagonism of metrazole-induced convulsions and neuromuscular impairment (roto-rod studies) are published in Eur. J. Pharmacol. 78(3):323-333 (1980) and briefly discussed below. To determine the antagonist properties of a test compound, subjects are treated with test agent intraperitoneally or orally at selected intervals prior to or following treatment with a benzodiazepine agonist, and are then tested under the appropriate test conditions.
A roto-rod test (Rinnard and Car, J. Pharmacol. and Exp. Therap. 121:354 (1957)) which measures the rat's muscle tone and ability to perform coordinated locomotor tasks may be used to evaluate a test compound's antagonist properties. In the roto-rod test, rats are trained to maintain themselves for at least 1 min on a rotating rod (6 r.p.m.). Subjects are treated with a test compound and are retested for their ability to maintain themselves on the roto-rod at 30 and 60 min. post-drug administration. Subjects that fail to stay on the rod for a one-minute period are considered to be neuromuscularly impaired (ataxia) and the ED50 (that dose which would be expected to produce ataxia in 50% of the rats tested) is calculated. […] The benzodiazepine antagonists may also be administered immediately prior to, or immediately after, the benzodiazepine agonist in this test.

[4] = tested on: male Wistar rats; experiment: Overt toxicity after intraperitoneal dosing; type: in vivo
Source text: In general, the compound 4-amino-8-phenyl-N-propyl-3-cinnolinecarboxamide is believed to be able to antagonize the effects of benzodiazepine receptor agonists and will be useful whenever such antagonism is desired.

[5] = tested on: metrazole-induced convulsions; experiment: Antagonism of metrazole-induced convulsions (anticonvulsant activity); type: in vivo; details: substance given alone
Procedure: Further tests may be conducted to evaluate the agonist/antagonist profile of a compound. […] To determine the antagonist properties of a test compound, subjects are treated with test agent intraperitoneally or orally at selected intervals prior to or following treatment with a benzodiazepine agonist, and are then tested under the appropriate test conditions.

[6] = tested on: benzodiazepine receptors; experiment: [3H]-flunitrazepam binding test (FNB test); details: at a tested concentration of 500 nanomolar or less; rat cerebral cortex P2 membranes

| Structure (SMILES) | effect on flunitrazepam binding (displacement or enhancement) [1] | anticonflict activity (increase in mean number of shocks taken vs vehicle controls) [2] | neuromuscular uncoordination (ataxia) on the roto-rod [3] | antagonism of the anticonflict or disinhibiting activity (increase in shocks taken) of benzodiazepine agonists [2] | antagonism of diazepam-induced neuromuscular impairment on the roto-rod [3] | further results |
| --- | --- | --- | --- | --- | --- | --- |
| CCCCNc1c(C(=O)OCC)cnc2c1cnn2CC [cartazolate] | enhancement of the binding | – | – | – | – | – |
| CNC1=Nc2ccc(Cl)cc2C(c2ccccc2)=[N+]([O-])C1 [chlordiazepoxide] | – | significant (P<0.05) anticonflict activity | produce neuromuscular uncoordination (ataxia) at relatively low doses | – | – | mean number of shocks taken as compared to vehicle controls ([2]; rats, oral dose of 18 mg per kg chlordiazepoxide alone): significant increases |
| CN1C(=O)CN=C(c2ccccc2)c2cc(Cl)ccc21 [diazepam] | – | significant (P<0.05) anticonflict activity | produce neuromuscular uncoordination (ataxia) at relatively low doses | – | – | – |
| CCOC(=O)c1ncn2c1CN(C)C(=O)c1cc(F)ccc1-2 [ethyl 8-fluoro-5,6-dihydro-5-methyl-6-oxo-4H-imidazo(1,5a)(1,4)benzodiazepine-3-carboxylate] | – | – | – | antagonized | antagonized | – |
| CCCNC(=O)c1nnc2c(-c3ccccc3)cccc2c1N [formula Ia, 4-amino-8-phenyl-N-propyl-3-cinnolinecarboxamide] | – | does not exhibit | – | antagonized | antagonized | mean number of shocks taken (reversal of chlordiazepoxide effect) ([2]; rats, oral 1.25 mg per kg five minutes prior to 18 mg per kg oral chlordiazepoxide): did not exhibit a significant increase; toxicological problems ([4]; at several multiples of a therapeutic dose): has not exhibited toxicological problems; overt toxic effects ([4]; male Wistar rats, intraperitoneal dose of 50 mg per kg): no overt toxic effects; neuromuscular impairment (reversal of diazepam effect; ability to remain on the roto-rod) ([3]; rats, intraperitoneal 1.25 mg per kg five minutes after 20 mg per kg intraperitoneal diazepam): did not exhibit significant neuromuscular impairment; anticonvulsant activity typical of benzodiazepine agonists [5]: does not exhibit; displacement of specific [3H]-flunitrazepam binding [6]: ≥ 50% |
| CCCCNc1c(C(=O)OCC)c(C)nc2c1cnn2CC [tracazolate] | enhancement of the binding | – | – | – | – | – |
